From patent EP0519971B1, “NOVEL […] ACTIVE COMPOUNDS WHICH CAN BE FORMED FROM 1,3,4,6,7,8-HEXAHYDRO-2H-PYRIMIDO-(1,2-a)-PYRIMIDINE” (priority 1990, dated 1991) come the findings set out here.

Data set [1] is described as follows: Solubility in water of TBD salts (crude samples). It counts as physicochemical. As to the method: Solubilities were determined with the crude samples and indicate the volume of water sufficient to dissolve one gram of the salt.

For the molecule `C1CN=C2NCCCN2C1.O=C(O)c1cc2ccccc2[nH]1` [Example 2, salt of 1,5,7-triazabicyclo-[4.4.7]dec-5-ene (TBD, HHPP) with indole-2-carboxylic acid], the “Solubility in distilled water” value (pH 6.5) turned out to be 70 mg/mL. Under “solution in water”, this molecule showed a pH of solution of 6.5.
Take `C1CN=C2NCCCN2C1.O=C(O)c1ccc(Cl)cc1[N+](=O)[O-]` [Example 8, TBD 4-chloro-2-nitrobenzoate]: in data set [1], the Solubility in water is reported as not below 10 g/100ml.
Same read-out and setting: under `C1CN=C2NCCCN2C1.O=C(O)Cc1ccc([N+](=O)[O-])cc1` [Example 9, TBD 4-nitrophenylacetate] stands not below 20 g/100ml; under `C1CN=C2NCCCN2C1.O=C(O)Cc1ccc([N+](=O)[O-])cc1[N+](=O)[O-]` [Example 10, TBD 2,4-dinitrophenylacetate], not below 30 g/100ml; under `C1CN=C2NCCCN2C1.O=C(O)c1cc(Cl)ccc1[N+](=O)[O-]` [Example 11, TBD 5-chloro-2-nitrobenzoate], not below 40 g/100ml.
The same measure, in the same setting: under `C1CN=C2NCCCN2C1.O=C(O)c1ccc(Cl)c([N+](=O)[O-])c1` [Example 12, TBD 4-chloro-3-nitrobenzoate] stands not below 40 g/100ml; under `C1CN=C2NCCCN2C1.O=C(O)c1cc([N+](=O)[O-])ccc1O` [Example 13, TBD 5-nitrosalicylate (2-hydroxy-5-nitrobenzoate)], not below 160 g/100ml; under `C1CN=C2NCCCN2C1.O=C(O)c1ccc([N+](=O)[O-])c(O)c1` [Example 14, TBD 3-hydroxy-4-nitrobenzoate], not below 30 g/100ml.
On the same count and under the same terms, under `C1CN=C2NCCCN2C1.O=C(O)c1ccccc1I` [Example 15, TBD 2-iodobenzoate] stands not below 10 g/100ml; under `C1CN=C2NCCCN2C1.C1CN=C2NCCCN2C1.O=C(O)c1cc(C(=O)O)cc([N+](=O)[O-])c1` [Example 17, TBD 5-nitroisophthalate (5-nitrobenzene-1,3-dicarboxylic acid bis TBD salt)], not below 30 g/100ml.
For the molecule “TBD 5-amino-5-hydroxybenzoate [Example 16]”, the Solubility in water in data set [1] is given as not below 10 g/100ml.
